The results in this text go back to patent publication US20260115189A1, “Combination Treatment Regimens - SMARCA2 Degrader With Taxane Anticancer Agent” (PRELUDE THERAPEUTICS INCORPORATED, priority 2023, published 2026).

Entries after “also recorded” stand apart in the source; their conditions may differ. Where two headings read alike, the source gives them in different places.

Series [1] concerns SMARCA4-deficient NCI-H838 Lung Cancer Xenograft. To be noted: for Tumor size: day 20, mean ± SEM; for Tumor size / TGI (tumor growth inhibition vs vehicle): combination of both regimens; for TGI (tumor growth inhibition vs vehicle): day 20. How it is done: (§1) As used herein, tumor growth inhibition is calculated as follows: Mean % Inhibition=(mean(C)−mean(T))/mean(C)*100%, wherein C is the tumor volume in the control arm, and T is the tumor volume in the treatment arm.
The NCI-H838-#5 tumor cells were maintained in vitro with RPMI1640 medium supplemented with 10% fetal bovine serum at 37° C. in an atmosphere of 5% CO2 in air. The cells in exponential growth phase were harvested and quantitated by cell counter before tumor inoculation. NOD-SCID female mice were inoculated subcutaneously in the right front flank region with NCI-H838-#5 tumor cells (5×10^6) in 0.1 ml of PBS mixed with Matrigel (1:1) for tumor development. The randomization was performed when the mean tumor size reaches approximately 100-150 mm^3.
(§2) Tumor volumes at the end of studies were evaluated by the Mann-Whitney test (unpaired, nonparametric test). * P<0.05 […], *** P<0.001 versus vehicle are shown in graphs.

For series [2], the system named is NCI-H838 cells (SMARCA4-del NSCLC cell line). Description: Cell cycle analysis by flow cytometry (EdU / DRAQ5). To be noted: NCI-H838, single agent, 48 hrs. It counts as cell-based, human. On the procedure: Cells were seeded, incubated overnight, and dosed with drug treatments the next day. 2 hours before collection, cells were incubated with 10 μM EdU at 37 C then harvested using trypsin EDTA and washed with PBS/1% BSA. 4% PFA was added to the cells followed by a 15 minute incubation at RT. Cell were washed again with PBS/1% BSA and resuspended in 1X Click-iT® saponin-based permeabilization reagent for 15-minutes. Following centrifugation, supernatant was removed, and cells were incubated for 30 mins at RT, protected from light, in Click-iT® reaction cocktail, which was prepared according to manufacturer's instructions. Cells were then washed once with 0.01% Triton in PBS and resuspended in PBS. DRAQ5™ was added to cells at 1:200 dilution, incubated at room temperature, preventing exposure to light, for 30-60 min. Lastly, cells were washed with PBS/1% BSA and resuspended in 400 μl PBS/1% BSA. EdU with Pacific Blue™ azide and was detected using 405 nm excitation with a violet emission filter (450/50 nm) on a flow cytometer and analyzed using FlowJo software.
The combination effects of Formula (I) and docetaxel on the cell cycle was analyzed in a SMARCA4-deficient NSCLC lung cancer cell line by flow cytometry using DraQ5 and Click-iT EdU Pacific Blue. […]

Another series addresses T1, SMARCA2 protein (Homo sapiens, UniProt P51531).
T1 construct: from tissue; host or cells: Frozen xenograft tumor tissue from human lung cancer cells (NCI-H838, A549 or Calu-6) grown subcutaneously in mice
As to the kind of experiment: Semi-quantitative western blot of SMARCA2 in tumor tissue. It counts as in vivo, mouse xenograft. Conditions: for tumor SMARCA2 protein levels: repeat administration, Formula (I) 100-200 mg/kg s.c. Q3D, over a 24 h period, docetaxel 5-20 mg/kg i.v. QW; for tumor SMARCA2 protein levels relative to vehicle treated mice: tumors collected 4 hr and 24 hr post final dosing, Formula (I) 100 mg/kg s.c. Q3D, docetaxel 10/5 mg/kg i.v. QW. On the procedure:
SMARCA2 protein expression was measured by semi-quantitative western blot following extraction of protein from frozen tumor tissue. Up to 50 mg of frozen tumor tissue was measured and placed into 0.5 mL conical tubes containing 0.5 mm ceramic beads and 400 μL RIPA buffer containing 1× protease and phosphatase inhibitors (ThermoFisher Scientific, A32959) and PMSF (Cell Signaling Technology, #8553). Tissues were homogenized with a Bead Ruptor Elite at a speed of 5 m/sec for 25 seconds and centrifuged at 12,000 rpm for 3 min at 4° C. Milling and centrifugation steps were performed two additional times before transferring supernatant to UltraFree 0.45 μm 0.5 mL filter columns (Millipore Sigma, #UFC30HV) and centrifuging at 12,000 rpm for 1 min. Flow through lysate was quantified by BCA assay, diluted with 1 volume of RIPA lysis buffer, and mixed with Laemmli sample buffer. Lysates were boiled at 95° C. for 5 min and 30 μg of protein was loaded in 4-20% Criterion TGX Precast Midi Protein Gels (BioRad, #5671095). Protein was transferred to PVDF membranes by Trans-Blot Turbo system (Bio-Rad) and probed with Actin (Signma, #A2228) and SMARCA2 (Cell Signaling Technology, #11966) primary antibodies at a 1:1000 dilution and IRDye 800CW or IRDye 680RD secondary antibodies (LICOR, antibody, #926-68070) in iBind automated western system (ThermoFisher Scientific). The stained blots were scanned by LiCOR Odyssey CLx imaging system to acquire integrated intensities at 700 nm and 800 nm channel and analyzed using Image Studio software v5.2.

Series [3] relates to SMARCA4-WT Calu-6 Lung Cancer Xenograft. Conditions: for Tumor size: day 21, mean ± SEM; for Tumor size / TGI (tumor growth inhibition vs vehicle): Formula (I) 100 mg/kg Q3D, docetaxel 5/10 mg/kg QW, combination 100 + 5/10 mg/kg Q3D + QW; for TGI (tumor growth inhibition vs vehicle): day 21. On the procedure: as §1
The Calu-6 tumor cells were maintained in vitro with MEM medium supplemented with 10% fetal bovine serum at 37° C. in an atmosphere of 5% CO2 in air. The cells in exponential growth phase were harvested and quantitated by cell counter before tumor inoculation. BALB/c nude female mice were inoculated subcutaneously in the right front flank region with Calu-6 tumor cells (5×10^6) in 0.1 ml of PBS for tumor development. The randomization was performed when the mean tumor size reaches approximately 100-150 mm^3.
as §2

Series [4] concerns SMARCA4-mutated cancer cell lines. As to the kind of experiment: Cell cycle arrest in SMARCA4-mutated cancer cell lines. Format: cell-based.
Series [5] has as its system SMARCA4-deficient A549 Lung Cancer Xenograft. Conditions: for Tumor size: day 28, mean ± SEM. How it is done:
as §1
The A549 tumor cells were maintained in vitro with Ham's F12K medium supplemented with 10% fetal bovine serum at 37° C. in an atmosphere of 5% CO2 in air. The cells in exponential growth phase were harvested and quantitated by cell counter before tumor inoculation. BALB/c nude female mice were inoculated subcutaneously in the right front flank region with A549 tumor cells (5×10^6) in 0.1 ml of PBS for tumor development. The randomization was performed when the mean tumor size reaches approximately 100-150 mm^3.
as §2

Series [6] relates to SMARCA4-mutated NCI-H838 tumor tissues. Description: RNA-sequencing and Gene Set Enrichment Analysis of treated tumor tissues. It counts as in vivo. Conditions: NCI-H838 tumor tissues treated for one week. On the procedure:
To elucidate the mechanism of action for the combination effects observed in vivo, RNA-sequencing was conducted on SMARCA4-mutated NCI-H838 tumor tissues treated with Formula (I) and/or docetaxel for one week.

Series [7] deals with SMARCA4 wild-type cell lines. As to the kind of experiment: Cell cycle arrest in SMARCA4 wild-type cell lines. It counts as cell-based.
Where [8] appears, read: Formula (I) 100 mg/kg s.c. Q3D, docetaxel 10/5 mg/kg i.v. QW.
Setting [9] is: as printed in text: Formula (I) 200 mg/kg s.c. Q3D, docetaxel 5-20 mg/kg i.v. QW, combination Formula (I) 100 mg/kg s.c. Q3D + docetaxel 5-20 mg/kg i.v. QW.
Setting [10] is: Formula (I) 100 mg/kg s.c. Q3D, docetaxel 5/10/20 mg/kg QW, combination 200 + 5/10/20 mg/kg Q3D + QW.
The mark [11] stands for this setting: day 28, Formula (I) 100 mg/kg s.c. Q3D, docetaxel 5/10/20 mg/kg QW, combination 200 + 5/10/20 mg/kg Q3D + QW.

T1 sequence (P51531 whole entry): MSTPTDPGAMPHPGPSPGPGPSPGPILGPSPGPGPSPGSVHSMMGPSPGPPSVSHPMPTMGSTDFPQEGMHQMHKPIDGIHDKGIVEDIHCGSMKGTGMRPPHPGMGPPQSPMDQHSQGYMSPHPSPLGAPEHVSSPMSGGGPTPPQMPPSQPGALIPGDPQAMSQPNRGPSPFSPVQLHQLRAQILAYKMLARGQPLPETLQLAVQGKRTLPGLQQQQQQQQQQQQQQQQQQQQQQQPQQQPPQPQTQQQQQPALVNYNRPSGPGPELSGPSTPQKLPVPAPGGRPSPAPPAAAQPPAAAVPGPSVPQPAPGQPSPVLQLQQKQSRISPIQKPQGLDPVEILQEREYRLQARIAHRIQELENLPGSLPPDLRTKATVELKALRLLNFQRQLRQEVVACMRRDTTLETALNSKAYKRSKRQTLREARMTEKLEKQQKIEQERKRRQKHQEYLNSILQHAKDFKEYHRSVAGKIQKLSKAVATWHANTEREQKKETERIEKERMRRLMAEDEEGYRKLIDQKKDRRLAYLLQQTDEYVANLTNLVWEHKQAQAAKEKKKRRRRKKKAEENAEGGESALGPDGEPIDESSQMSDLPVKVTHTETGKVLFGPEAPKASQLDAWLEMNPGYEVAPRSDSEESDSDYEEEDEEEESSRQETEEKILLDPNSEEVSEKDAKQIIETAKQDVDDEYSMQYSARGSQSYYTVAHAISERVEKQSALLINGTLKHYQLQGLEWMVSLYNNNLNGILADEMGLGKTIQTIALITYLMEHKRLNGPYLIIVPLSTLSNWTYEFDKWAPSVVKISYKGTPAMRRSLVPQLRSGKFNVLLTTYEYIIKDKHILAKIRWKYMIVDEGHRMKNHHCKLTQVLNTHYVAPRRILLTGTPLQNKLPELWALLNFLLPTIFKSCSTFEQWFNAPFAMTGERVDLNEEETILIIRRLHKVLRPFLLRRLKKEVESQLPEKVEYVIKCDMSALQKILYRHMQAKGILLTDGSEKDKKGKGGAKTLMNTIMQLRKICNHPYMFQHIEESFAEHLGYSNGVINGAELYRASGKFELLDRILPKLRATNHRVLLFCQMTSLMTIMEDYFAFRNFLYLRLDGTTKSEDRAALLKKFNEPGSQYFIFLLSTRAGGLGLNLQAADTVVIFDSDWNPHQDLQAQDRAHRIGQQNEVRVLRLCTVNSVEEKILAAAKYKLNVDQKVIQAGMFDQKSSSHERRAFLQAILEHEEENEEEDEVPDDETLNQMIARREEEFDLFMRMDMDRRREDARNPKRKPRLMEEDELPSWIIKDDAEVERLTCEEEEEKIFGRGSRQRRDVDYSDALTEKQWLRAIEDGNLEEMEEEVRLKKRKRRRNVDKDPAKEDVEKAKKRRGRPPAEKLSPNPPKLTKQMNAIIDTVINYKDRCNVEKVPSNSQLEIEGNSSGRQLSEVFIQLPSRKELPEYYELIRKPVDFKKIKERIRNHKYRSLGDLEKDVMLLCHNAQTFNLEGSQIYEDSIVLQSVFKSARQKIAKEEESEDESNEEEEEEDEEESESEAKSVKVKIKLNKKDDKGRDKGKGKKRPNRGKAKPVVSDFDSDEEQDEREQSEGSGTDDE

With `CC(=O)O[C@@]12CO[C@@H]1C[C@H](O)[C@@]1(C)C(=O)[C@H](O)C3=C(C)[C@@H](OC(=O)[C@H](O)[C@@H](NC(=O)OC(C)(C)C)c4ccccc4)C[C@@](O)([C@@H](OC(=O)c4ccccc4)[C@H]21)C3(C)C` [Docetaxel, reference compound], the Tumor size is reported as 971.86 ± 127.82 mm^3 in series [1] (setting [8]), 1,338 ± 132 mm^3 in series [3] and 2,223 ± 300 mm^3 in series [5] (setting [10]). In addition, the “TGI (tumor growth inhibition vs vehicle)” value in series [1] (setting [8]) is 55.0% (day; in series [1] (Formula (I) 100 mg/kg s.c. Q3D, docetaxel 10/5 mg/kg i.v. QW, listed as docetaxel) it was 55%; in series [3] it was 37.6% (day; in series [5] (setting [9]), 13%; in series [5] (setting [11]) it was 13.3% (day. In addition, the cell cycle arrest result in series [2] is listed as “dose dependent G2/M arrest signal”; in series [4], “induced G2/M arrest”. For the same compound, the “tumor SMARCA2 protein levels” value on SMARCA2 protein is “no effect”. Moreover, at SMARCA2 protein, the “tumor SMARCA2 protein levels relative to vehicle treated mice” value is given as “no effect; also recorded: unaffected”. Besides, the “Gene Set Enrichment Analysis: E2F targets and G2/M pathways” value in series [6] is “positive enrichment of E2F targets and G2/M pathways”.

Consider `Cc1ncsc1-c1ccc([C@H](C)NC(=O)[C@@H]2C[C@@H](O)CN2C(=O)[C@@H](c2cc(O[C@@H](C)CN3CC[C@@H](N4CCN5c6cc(-c7ccccc7O)nnc6NC[C@H]5C4)C3)no2)C(C)C)cc1` [Formula (I)], for which the “tolerability (morbidity, body weight)” value in series [1] (Formula (I) 100 mg/kg s.c. Q3D, docetaxel 10/5 mg/kg i.v. QW, combination of both, one Formula (I) dosing holiday on day 12 in combination) is recorded as “well tolerated”; in series [1] (single agents: Formula (I) 50 or 75 mg/kg i.v. QW, nab-paclitaxel 30 mg/kg i.v. Q3W), “well tolerated”; in series [3] (Formula (I) 100 mg/kg s.c. Q3D, docetaxel 5/10 mg/kg i.v. QW, combination) it was “well tolerated”; in series [5] (Formula (I) s.c. Q3D, docetaxel 5-20 mg/kg i.v. QW, combination) it was “well tolerated”. For the same compound, the Tumor size in series [1] (setting [8]) was 590.46 ± 102.37 mm^3; in series [3], 1,535 ± 174 mm^3; in series [5] (setting [10]), 1,785 ± 221 mm^3. Further, the cell cycle arrest entry in series [2] is reported as “dose dependent G1 arrest signal”; in series [4], “induced G1 cell cycle arrest”. Further, at SMARCA2 protein, the “tumor SMARCA2 protein levels” value was “complete reduction”. Also, the “tumor SMARCA2 protein levels relative to vehicle treated mice” value at SMARCA2 protein is “significantly decreased; also recorded: abolished”. The “growth of SMARCA4 WT Calu-6 lung tumor xenografts” value in series [3] (Formula (I) at efficacious dosing regimens) was “did not inhibit the growth”. Further, the “TGI (tumor growth inhibition vs vehicle)” value in series [3] was 27.2% (day; in series [5] (setting [9]) it was 32%; in series [5] (setting [11]), 31.6% (day. Besides, in series [7], the “G1 cell cycle arrest” value is reported as “not in SMARCA4 wild-type cell lines”. Besides, in series [6], the “Gene Set Enrichment Analysis: E2F targets and G2/M pathways” value is “downregulating E2F targets and G2/M pathways”.
